Measurements reported in patent US11091511B2, “Panaxdiol-type ginsenoside derivative, preparation method therefor and use thereof” (ARMY MEDICAL UNIVERSITY, priority 2016, dated 2021).
Marks after values point to notes of the source that are not given here.

Experiments:
RAW264.7 cells = assay: RAW264.7 cell survival rate by CCK8 method; type: cell-based, mouse; settings: compound 10 prnol/L, 0.1% DMSO, CCK8, x ± s, n = 3, normal saline control = 1
Experimental: In order to further verify the toxicities of the compounds prepared in Examples 1-30 of the present invention, the mouse macrophage cell line RAW264.7 was cultured, and the compounds prepared in Examples 1-30 of the invention were prepared to a concentration of […] using culture medium, wherein the solvent was normal saline, the co-solvent was dimethyl sulfoxide (DMSO, the final concentratoin was 0.1%), and a 0.1% DMSO saline control group was provided. The cell survival rate was determined by CCK8 method. The data were expressed as x±s. SPSS 10.0 line single-factor analysis of variance was performed among groups. The difference was significant when p<0.05.

apoE−/− mice [1] = assay: Atherosclerotic plaque area to total aortic area in apoE-/- mice on high-fat diet (Sudan IV staining); type: in vivo, mouse; settings: intragastric 15 weeks, compounds 30 mg/(kg·d), simvastatin 10 mg/(kg·d), x ± s, n = 5, saline control 14.67 ± 3.58
Description: The effects of the compounds prepared in Examples 1-30 of the present invention on the percentages of areas of atherosclerotic plaque formation to the area of the entire artery in apoE−/− mice with a high-fat diet and the levels of low-density lipoprotein cholesterol and the levels of high-density lipoprotein, the specific steps are as follows: 1. animals: 160 ten-week-old, healthy and clean-grade apoE−/− mice (purchased from Peking University Experimental Animal Center), males, weight: 22-25 g, were housed in separate cages in a sterile laminar feeding room and fed freely. The mice were fed by a high-fat diet (conventional feed+0.15% cholesterol+21% lard) for 25 weeks, the room temperature was kept at 24° C., relative humidity: 50%, illumination time 7:30-19:30. 2. Grouping, administration method: after 10 weeks of feeding, the animals were divided into the following 32 groups (n=5) by weight in a balanced and random manner, and killed 15 weeks after administration. Normal saline control group: normal saline, intragastric administration. Positive control group: simvastatin 10 mg/(kg·d), intragastric administration. The compound groups prepared in Examples 1-30 of the present invention (30 groups in total): each was intragastric administered 30 mg/(kg·d). (1) Analysis of the area of atherosclerotic plaque and its percentage to total area: after the animals were killed, the aortas were separated, from the roots of the aortas to the terminal bifurcations of the abdominal aortas. After formalin fixation, the aortas were stained with Sudan IV, the red stained parts were the areas of atherosclerotic lesions. The percentage of the area of the lesion area to total area was calculated using Image Pro Plus 5.0 software. Data were expressed as x±s, and SPSS 10.0 line single-factor analysis of variance was performed among groups, a significant difference was indicated when p<0.05.

apoE−/− mice [2] = assay: Blood lipids (LDL-C, HDL-C) in apoE-/- mice on high-fat diet; type: in vivo, mouse; settings: apoE-/- mice serum, intragastric 15 weeks, compounds 30 mg/(kg·d), simvastatin 10 mg/(kg·d), x ± s; for HDL-C: n = 5, saline control 3.74 ± 0.62; for LDL-C: n = 5, saline control 7.33 ± 1.03
Description: The effects of the compounds prepared in Examples 1-30 of the present invention on the percentages of areas of atherosclerotic plaque formation to the area of the entire artery in apoE−/− mice with a high-fat diet and the levels of low-density lipoprotein cholesterol and the levels of high-density lipoprotein, the specific steps are as follows:
1. animals: 160 ten-week-old, healthy and clean-grade apoE−/− mice (purchased from Peking University Experimental Animal Center), males, weight: 22-25 g, were housed in separate cages in a sterile laminar feeding room and fed freely. The mice were fed by a high-fat diet (conventional feed+0.15% cholesterol+21% lard) for 25 weeks, the room temperature was kept at 24° C., relative humidity: 50%, illumination time 7:30-19:30.
2. Grouping, administration method:
after 10 weeks of feeding, the animals were divided into the following 32 groups (n=5) by weight in a balanced and random manner, and killed 15 weeks after administration.
Normal saline control group: normal saline, intragastric administration.
Positive control group: simvastatin 10 mg/(kg·d), intragastric administration.
The compound groups prepared in Examples 1-30 of the present invention (30 groups in total): each was intragastric administered 30 mg/(kg·d).
(2) Determination of the levels of total cholesterol (TC), low-density cholesterol lipoprotein (LDL-C) and high-density lipoprotein cholesterol (HDL-C): using ROCHE 7060 automatic biochemical analyzer for the determination.
Data were expressed as x±s, and SPSS 10.0 line single-factor analysis of variance was performed among groups, a significant difference was indicated when p<0.05.

TNF-α = assay: Local TNF-α level in the arteries of apoE-/- mice (Millipore liquid phase chip); type: in vivo, mouse; settings: high-fat diet, intragastric 15 weeks, compounds 30 mg/(kg·d), simvastatin 10 mg/(kg·d), x ± s, n = 5, saline control 25.58 ± 6.44
Description: The effects of the compounds prepared in Examples 1-30 of the present invention on the percentages of areas of atherosclerotic plaque formation to the area of the entire artery in apoE−/− mice with a high-fat diet and the levels of low-density lipoprotein cholesterol and the levels of high-density lipoprotein, the specific steps are as follows: 1. animals: 160 ten-week-old, healthy and clean-grade apoE−/− mice (purchased from Peking University Experimental Animal Center), males, weight: 22-25 g, were housed in separate cages in a sterile laminar feeding room and fed freely. The mice were fed by a high-fat diet (conventional feed+0.15% cholesterol+21% lard) for 25 weeks, the room temperature was kept at 24° C., relative humidity: 50%, illumination time 7:30-19:30. 2. Grouping, administration method: after 10 weeks of feeding, the animals were divided into the following 32 groups (n=5) by weight in a balanced and random manner, and killed 15 weeks after administration. Normal saline control group: normal saline, intragastric administration. Positive control group: simvastatin 10 mg/(kg·d), intragastric administration. The compound groups prepared in Examples 1-30 of the present invention (30 groups in total): each was intragastric administered 30 mg/(kg·d). (3) Determination of TNF-α level: Millipore liquid phase chip method was used for the determination (Mcytomag-70K-3, Mouse Cytokine/Chemokine Magnetic Bead Panel). Data were expressed as x±s, and SPSS 10.0 line single-factor analysis of variance was performed among groups, a significant difference was indicated when p<0.05.

[3] = tested on: RAW264.7 cell-derived foam cells; assay: Formation of RAW264.7 cell-derived foam cells (ox-LDL, oil red O, absorbance 490 nm); type: cell-based, mouse; settings: 48 hours, model group = 100%, x ± s, n = 3
Experimental: The effects of the compounds prepared in Examples 1-30 of the present invention on the formation of RAW264.7 cell-derived foam cells, the specific steps are as follows:
1. Cell culture and foam cell model establishment:
RAW264.7 cells were cultured in DMEM culture medium with high glucose level (GIBCO) to a cell concentration of 1×10^6, planted in a 6-well plate, and 60 mg/L of ox-LDL (oxidized modified low-density lipoprotein, Peking Union Medical College) was added, foam cells were obtained after 48 hours of incubation.
2. Grouping and index detection:
The obtained foam cells were divided into 61 groups, 3 well plates were included in one group. After the treatment by adding the drugs (100 μL/well) for 48 hours, the medium was discarded, and after oil red 0 staining, the excess amount of oil red 0 was washed away. The cells were dissolved in isopropanol and the absorbance values were measured at 490 nm. The OD value of the model group was 100%, and the OD value of each group corrected by the number of cells was compared with the model group to obtain the ratio of intracellular lipid content. The larger the value, the more intracellular lipids, the higher the degree of formation of foam cells.
Normal saline control group: normal saline
Low dose groups of the compounds prepared in Examples 1-30 of the present invention:
10 μmol/L (solvents were normal saline).
High dose groups of compounds prepared in Examples 1-30 of the present invention: 30 μmol/L (solvents were normal saline).
Data were expressed as x±s, and SPSS 10.0 line single-factor analysis of variance was performed amoung groups, a significant difference was indicated when p<0.05.

Compound | Cell Survival Rate (RAW264.7 cells) | Plaque area/total aorta area (%) (apoE−/− mice [1]) | HDL-C (apoE−/− mice [2]) | LDL-C (apoE−/− mice [2]) | TNF-α level (ng/g) (TNF-α) | Foam cell formation (%) ([3]; dose 10 μmol/L) | Foam cell formation (%) ([3]; dose 30 μmol/L)
CC(=O)OC[C@H]1O[C@H](O[C@@](C)(CCC=O)C2CC[C@]3(C)[C@@H]2C(OC(C)=O)CC2[C@@]4(C)CC[C@H](OC(C)=O)C(C)(C)C4CC[C@]23C)[C@H](OC(C)=O)[C@@H](OC(C)=O)[C@@H]1OC(C)=O (some centres unmarked) [Compound 3] | 0.42 ± 0.03 ^a | 9.74 ± 3.19 ^a % | 4.97 ± 0.95 ^a mmol/L | 6.12 ± 1.28 mmol/L | 16.68 ± 4.98 ^a ng/g | 85 ± 20% | 72 ± 13 ^a %
COC(=O)[C@@H](NCCC[C@](C)(OC(C)=O)C1CC[C@]2(C)[C@@H]1C(OC(C)=O)CC1[C@@]3(C)CC[C@H](OC(C)=O)C(C)(C)C3CC[C@]12C)C(C)C (some centres unmarked) [Compound 20] | 1.02 ± 0.13 | 9.67 ± 2.98 ^a % | 4.72 ± 0.52 ^a mmol/L | 6.62 ± 0.89 mmol/L | 15.98 ± 5.33 ^a ng/g | 79 ± 15 ^a % | 63 ± 14 ^a %
CCOC(=O)CCNCCC[C@](C)(O[C@H]1O[C@H](COC(C)=O)[C@@H](OC(C)=O)[C@H](OC(C)=O)[C@H]1OC(C)=O)C1CC[C@]2(C)[C@@H]1C(OC(C)=O)CC1[C@@]3(C)CC[C@H](OC(C)=O)C(C)(C)C3CC[C@]12C (some centres unmarked) [Compound 10] | 0.82 ± 0.13 | 8.52 ± 3.25 ^a % | 4.50 ± 0.94 ^a mmol/L | 6.54 ± 1.06 mmol/L | 11.66 ± 2.65 ^a ng/g | 69 ± 18 ^a % | 45 ± 21 ^a %
CC(=O)OC1CC2[C@@]3(C)CC[C@H](OC(C)=O)C(C)(C)C3CC[C@@]2(C)[C@]2(C)CCC([C@](C)(CCC3OC3(C)C)OC(C)=O)[C@@H]12 (some centres unmarked) [Compound 17] | 0.87 ± 0.07 | 8.53 ± 2.57 ^a % | 5.55 ± 0.56 ^a mmol/L | 4.83 ± 1.51 ^a mmol/L | 15.27 ± 4.65 ^a ng/g | 70 ± 15 ^a % | 55 ± 21 ^a %
COC(=O)[C@@H](Cc1ccc(O)cc1)NCCC[C@](C)(O[C@H]1O[C@H](COC(C)=O)[C@@H](OC(C)=O)[C@H](OC(C)=O)[C@H]1OC(C)=O)C1CC[C@]2(C)[C@@H]1C(OC(C)=O)CC1[C@@]3(C)CC[C@H](OC(C)=O)C(C)(C)C3CC[C@]12C (some centres unmarked) [Compound 13] | 0.85 ± 0.12 | 9.44 ± 3.24 ^a % | 5.29 ± 1.18 ^a mmol/L | 5.07 ± 0.99 ^a mmol/L | 15.65 ± 6.74 ^a ng/g | 71 ± 14 ^a % | 47 ± 23 ^a %
COC(=O)CNCCC[C@](C)(O[C@H]1O[C@H](COC(C)=O)[C@@H](OC(C)=O)[C@H](OC(C)=O)[C@H]1OC(C)=O)C1CC[C@]2(C)[C@@H]1C(OC(C)=O)CC1[C@@]3(C)CC[C@H](OC(C)=O)C(C)(C)C3CC[C@]12C (some centres unmarked) [Compound 9] | 0.85 ± 0.07 | 10.55 ± 2.19 ^a % | 4.41 ± 0.67 ^a mmol/L | 6.84 ± 0.85 mmol/L | 12.85 ± 4.17 ^a ng/g | 79 ± 23% | 65 ± 17 ^a %
COC(=O)CC[C@H](NCCC[C@](C)(O[C@H]1O[C@H](COC(C)=O)[C@@H](OC(C)=O)[C@H](OC(C)=O)[C@H]1OC(C)=O)C1CC[C@]2(C)[C@@H]1C(OC(C)=O)CC1[C@@]3(C)CC[C@H](OC(C)=O)C(C)(C)C3CC[C@]12C)C(=O)OC (some centres unmarked) [Compound 8] | 0.82 ± 0.06 | 9.31 ± 3.58 ^a % | 5.63 ± 0.84 ^a mmol/L | 4.34 ± 1.19 ^a mmol/L | 12.67 ± 3.11 ^a ng/g | 73 ± 16 ^a % | 51 ± 17 ^a %
COC(=O)[C@H](Cc1c[nH]cn1)NCCC[C@](C)(O[C@H]1O[C@H](COC(C)=O)[C@@H](OC(C)=O)[C@H](OC(C)=O)[C@H]1OC(C)=O)C1CC[C@]2(C)[C@@H]1C(OC(C)=O)CC1[C@@]3(C)CC[C@H](OC(C)=O)C(C)(C)C3CC[C@]12C (some centres unmarked) [Compound 14] | 0.83 ± 0.06 | 9.34 ± 3.01 ^a % | 4.39 ± 0.59 ^a mmol/L | 5.58 ± 1.11 ^a mmol/L | 16.92 ± 5.04 ^a ng/g | 78 ± 18 ^a % | 66 ± 16 ^a %
